We go through 3 compounds from PMC5404542, “In Vitro and In Vivo Antifungal Profile of a Novel and Long-Acting Inhaled Azole, PC945, on Aspergillus fumigatus Infection” (Antimicrobial Agents and Chemotherapy, 2017).

Broadly, the IC50 is the concentration that inhibits the measured activity by half. Broadly, the MIC50 is an inhibitory concentration at the 50% level, which refers to growth in some studies and to a panel of isolates in others. Broadly, the MIC90 is an inhibitory concentration at the 90% level, which refers to growth in some studies and to a panel of isolates in others. A lower MIC90 goes with higher susceptibility.

Series [1] has as its system A. fumigatus (NCPF2010). Nature of the series: A. fumigatus cell-based ergosterol assay. The following applies: Aspergillus fumigatus; NCPF2010, 24 h, normalized by crystal violet; read-out: IC50, inhibition of ergosterol production. Also noted: species or system Aspergillus fumigatus. The procedure:
After incubation for 24 h at 35°C, medium was removed from all wells and replaced with reaction buffer (Amplex red cholesterol assay kit; Thermo Fisher) and Amplex red solution. Plates were incubated for 30 min at 37°C, protected from light, after which fluorescence was quantified using a spectrophotometer. Medium was removed from all wells and replaced with crystal violet solution (1% [vol/vol]), and plates were incubated at room temperature on a shaker for 30 min. Plates were washed three times with phosphate-buffered saline (PBS), and sodium dodecyl sulfate solution (0.1% [vol/vol]) was added across the plate to lyse the cells. After incubation at room temperature for 1 h, the absorbance was measured by determining the OD590 by use of a spectrophotometer.

The subject of series [2] is Aspergillus carbonarius (ATCC 8740). The experiment in a line: MIC, CLSI. In kind it is cell-based. Conditions: ATCC8740.
Series [3] has as its system Aspergillus flavus (ATCC 204304). The experiment in a line: MIC, CLSI. In kind it is cell-based. The following applies: ATCC204304.
In series [4] the test system is Aspergillus flavus (AFL8, NRRC3357). The experiment in a line: MIC, EUCAST. In kind it is cell-based.
Series [5] has as its system Aspergillus niger (ATCC 1015). The experiment in a line: MIC, EUCAST. Conditions: ATCC1015. In kind it is cell-based.
Series [6] relates to Aspergillus terreus (AT49, AT7130). Nature of the series: MIC, EUCAST. In kind it is cell-based.
In series [7] the test system is Penicillium chrysogenum (ATCC 9480). Nature of the series: MIC, CLSI. In kind it is cell-based. Conditions: ATCC9480, 1 strain.
Series [8] deals with Penicillium citrinum (ATCC 9849). Nature of the series: MIC, CLSI. The following applies: ATCC9849, 1 strain. In kind it is cell-based.
In series [9] the test system is Trichophyton rubrum (ATCC 10218). Nature of the series: MIC, CLSI. In kind it is cell-based. The following applies: ATCC10218, 1 strain.
In series [10] the test system is Aureobasidium pullulans (ATCC 9348). Nature of the series: MIC, CLSI. In kind it is cell-based. The following applies: ATCC9348, 1 strain.
Series [11] relates to Cladosporium argillaceum (ATCC 38013). The experiment in a line: MIC, CLSI. In kind it is cell-based. Conditions: Rhizocladosporium argillaceum, ATCC38013, 1 strain.
Series [12] relates to Candida albicans (20240.047, ATCC 10231). The experiment in a line: MIC, CLSI. In kind it is cell-based. Conditions: ATCC10231, read-out: MIC (the MIC given is the MIC50).
For series [13], the system named is AR Candida albicans (20183.073, 20186.025). Nature of the series: MIC, CLSI. In kind it is cell-based. The following applies: read-out: MIC (the MIC given is the MIC50).
Series [14] concerns Candida glabrata (ATCC 36583, R363). The experiment in a line: MIC, CLSI. Conditions: Nakaseomyces glabratus, ATCC36583, read-out: MIC (the MIC given is the MIC50). In kind it is cell-based.
Series [15] deals with Candida krusei (ATCC 6258). The experiment in a line: MIC, CLSI. Conditions: Pichia kudriavzevii, ATCC6258. In kind it is cell-based.
Series [16] concerns Chaetomium globosum (ATCC 44699). Nature of the series: MIC, CLSI. Conditions: ATCC44699, 1 strain. In kind it is cell-based.
Series [17] concerns Gibberella zeae (Fusarium graminearum) (ATCC 16106). Nature of the series: microbe, parasite or virus in culture. In kind it is cell-based. Conditions: ATCC16106.
Series [18] relates to Cryptococcus neoformans (ATCC 24067). Nature of the series: MIC, CLSI. In kind it is cell-based. The following applies: Cryptococcus neoformans, ATCC24067.
Series [19] has as its system Lichtheimia corymbifera (ATCC 7909). Nature of the series: MIC, CLSI. In kind it is cell-based. Conditions: ATCC7909, 1 strain.
In series [20] the test system is Mucor circinelloides (ATCC 8542). The experiment in a line: MIC, CLSI. In kind it is cell-based. The following applies: ATCC8542, 1 strain.
Series [21] deals with Rhizomucor pusillus (ATCC 16458). The experiment in a line: MIC, CLSI. In kind it is cell-based. Conditions: ATCC16458, 1 strain.
For series [22], the system named is Rhizopus oryzae (ATCC 11145). Nature of the series: MIC, CLSI. In kind it is cell-based.
Series [23] relates to BEAS2B cells infected with A. fumigatus. The experiment in a line: Persistence of action on bronchial epithelial cells (galactomannan in supernatant). In kind it is cell-based, Aspergillus fumigatus. The following applies: for IC50: Aspergillus fumigatus, BEAS-2B. The procedure: The persistence of action of test agents was evaluated on immortalized bronchial epithelial cells (BEAS2B cells). […] Test and reference articles or undiluted DMSO (as vehicle) (0.5 μl/well) was added to the appropriate wells of the washout plate to give a final concentration of 0.5% DMSO. The plate was incubated for exactly 1 h at 37°C and 5% CO2. After the incubation time had elapsed, all wells on the washout plate were aspirated, and growth medium (100 μl/well) was added across the plate. After 24 h of incubation at 37°C, test and reference articles or undiluted DMSO (as vehicle) (0.5 μl/well) was added to the appropriate wells of the nonwashout plate to give a final concentration of 0.5% DMSO. The plate was incubated for exactly 1 h at 37°C and 5% CO2, after which A. fumigatus conidia were added across both plates to a final concentration of 1 × 10^3/well.

Series [24] in a line: Precipitation in EUCAST medium. In kind it is physicochemical.
For series [25], the system named is A. fumigatus hyphae (NCPF2010).
Method: (§1) The persistence of action of test agents was calculated for A. fumigatus hyphae (NCPF2010). […] The plates were incubated for exactly 20 min at 35°C and 5% CO2. After the incubation time had elapsed, all wells on the designated washout plate were aspirated, and growth medium (100 μl/well) was added across the plate. […] Resazurin (0.04%; diluted in growth medium) was added to all wells of both nonwashout and washout plates (5 μl/well) to give a final concentration of 0.002% resazurin. The plates were incubated at 35°C and 5% CO2 for 16 h. […] The percent inhibition for each well was calculated, and the IC50 was calculated from the concentration-response curve generated for each test compound by use of a four-parameter logistic equation (Dotmatics, Bishops Stortford, United Kingdom).
Series [26] has as its system 96 clinically isolated A. fumigatus strains. Nature of the series: MIC against 96 clinically isolated strains (EUCAST, visual).
Method: (§2) Conidia were added across the plate to a final concentration of 1 × 10^5 ml^−1. […] Determination of antifungal activity against 50 A. fumigatus clinical isolates from St. Louis Hospital (Paris, France) was performed with 96-well plates, using the modified EUCAST method in the presence of 0.5% BSA as described above. Antifungal susceptibility testing of 46 A. fumigatus isolates (obtained from the NW England Mycology Reference Centre) was performed by Evotec UK Ltd. (Manchester, United Kingdom) according to EUCAST guidelines.
Series [27] relates to A. fumigatus ATCC 204305. The experiment in a line: MIC with and without BSA supplementation, quality control strain. Conditions: Aspergillus fumigatus.
Method: as §2
Series [28] concerns A. fumigatus hyphae (NCPF2010). The experiment in a line: Persistence of action on A. fumigatus hyphae (resazurin-based microtiter assay). Conditions: Aspergillus fumigatus, NCPF2010, 16 h, read-out: Hyphae IC50, No washout. (The colour change of resazurin is a common sign of viable cells or microbes.)
Method: as §1

The structures appear in SMILES notation. Converted amounts (≈) assume the structure as drawn. “And” between values parts separate entries of the source, which are not always exact repeats. Equal entries are not always repeated. Where two headings read alike, the source gives them in different places.

For `C[C@@H](c1ncncc1F)[C@](O)(Cn1cncn1)c1ccc(F)cc1F` [Voriconazole, voriconazole], the IC50 is 0.067 µg/mL and 190 nM in series [1]; 0.054 µg/mL (≈ 0.155 µM) in [23] (1 h contact before infection, GM readout after 24 h, read-out: BEAS2B cells IC50, No washout); more than 1 µg/mL in series [23] (1 h contact, 24-h washout prior to infection, GM readout, read-out: BEAS2B cells IC50, Washout); more than 1 µg/mL in [25]; 0.011 µg/mL (≈ 0.0315 µM) in series [28]. In addition, the MIC in series [2] was 0.5 µg/mL (≈ 1.43 µM); in series [3], 2 µg/mL (≈ 5.73 µM); in series [4] it was 0.63 µg/mL (≈ 1.8 µM); in [5] it was 1 µg/mL (≈ 2.86 µM); in series [6], 1 µg/mL (≈ 2.86 µM); in [7], 2 µg/mL (≈ 5.73 µM). Moreover, the MIC was more than 8 µg/mL in series [8]; 0.063 µg/mL (≈ 0.18 µM) in series [9]; more than 8 µg/mL in [10]; 0.5 µg/mL (≈ 1.43 µM) in [11]; 0.25 µg/mL (≈ 0.716 µM) in [15]; 1 µg/mL (≈ 2.86 µM) in series [16]. For the same compound, the MIC was more than 8 µg/mL in series [17]; 0.016 µg/mL (≈ 0.0458 µM) in series [18]; more than 8 µg/mL in [19]; more than 8 µg/mL in [20]; more than 8 µg/mL in [21]; more than 8 µg/mL in series [22] (1 strain). For the same compound, the MIC was more than 8 µg/mL in series [22] (Rhizopus arrhizus, ATCC11145, 1 strain, read-out: MIC); 0.42 µg/mL (≈ 1.2 µM) in series [26] (Aspergillus fumigatus, read-out: MIC, Geometric mean); 0.5 µg/mL (≈ 1.43 µM) in series [26] (Aspergillus fumigatus, read-out: MIC, Mode); 1 to 2 µg/mL (≈ 2.86 to 5.73 µM) in [27] (ATCC204305, with BSA); 2 µg/mL (≈ 5.73 µM) in [27] (ATCC204305, without BSA). Also, the MIC50 in series [12] stood at 0.14 µg/mL (≈ 0.401 µM); in series [13], 10 µg/mL (≈ 28.6 µM); in series [14], 8.13 µg/mL (≈ 23.3 µM); in [26] (Aspergillus fumigatus), 0.5 µg/mL (≈ 1.43 µM). The “BEAS2B cells IC50, Washout” value in series [23] (1 h contact, 24-h washout prior to infection, GM readout) was “ineffective”. In [24], the “concentration at which compound precipitated in EUCAST medium” value was “did not”. Also, the “MIC, Range” value in series [26] (96 clinical isolates, determined visually) lay in the range of 0.064 to 4 µg/mL. The compound further displayed an MIC90 in series [26] (Aspergillus fumigatus) of 1 µg/mL (≈ 2.86 µM).

Turning to `C[C@@H]1[C@H](O)[C@@H](C)/C=C/C=C/C=C/C=C/C=C/C=C/C=C/[C@H](O[C@@H]2O[C@H](C)[C@@H](O)[C@H](N)[C@@H]2O)C[C@@H]2O[C@](O)(C[C@@H](O)C[C@@H](O)[C@H](O)CC[C@@H](O)C[C@@H](O)CC(=O)O[C@H]1C)C[C@H](O)[C@H]2C(=O)O` [Amphotericin B, amphotericin B], the MIC in series [27] (ATCC204305, with BSA) was found to be 2 µg/mL (≈ 2.16 µM); in series [27] (ATCC204305, without BSA) it was 1 µg/mL (≈ 1.08 µM).

Take `CCC(C)n1ncn(-c2ccc(N3CCN(c4ccc(OCC5COC(Cn6cncn6)(c6ccc(Cl)cc6Cl)O5)cc4)CC3)cc2)c1=O` (stereo not shown) [Itraconazole, itraconazole]: the MIC in series [27] (ATCC204305, with BSA) came to 0.125 µg/mL (≈ 0.177 µM); in series [27] (ATCC204305, without BSA), 0.25 µg/mL (≈ 0.354 µM).
